For one test, the system named is P12-ICHIKAWA
Kind of test: selective drug sensitivity score (sDSS, relative to normal bone marrow) (sDSS (score)); higher = more potent and effective on the cell line relative to normal bone marrow cells. To be noted: 72 h.
As to `O=C1c2c(O)ccc(O)c2C(=O)c2c(NCCNCCO)ccc(NCCNCCO)c21` [Mitoxantrone] (top concentration 1000 nM), the “selective drug sensitivity score” value amounted to 8.84.
Take `Nc1ncnc2c1c(COc1cccc(Cl)c1)nn2C1CCOCC1` (top concentration 10000 nM): the “selective drug sensitivity score” value is -0.54.
`CC1(C)CNc2cc(NC(=O)c3cccnc3NCc3ccncc3)ccc21` [Motesanib] (top concentration 10000 nM): the “selective drug sensitivity score” value is -0.22.
`NC(=O)c1cccc(-c2cccc(OC(=O)NC3CCCCC3)c2)c1` [URB597] (top concentration 1000 nM): the “selective drug sensitivity score” value was -0.46.
On the same count and under the same terms, as for `CCCN(CCC)C(=O)C1=Cc2ccc(-c3ccc(C(=O)N4CCCC4)cc3)cc2N=C(N)C1` [Motolimod] (top concentration 10000 nM), the figure is -3.18; as for `CCCOc1ccn2c(C(C)=O)cc(-c3ccccc3S(C)(=O)=O)c2c1` [GSK2801] (top concentration 10000 nM), -0.16.
For `Nc1cc(COc2c(Cl)cc(C[C@H](N)C(=O)O)cc2Cl)c2oc(-c3ccccc3)nc2c1` [JPH203] (top concentration 5000 nM), the “selective drug sensitivity score” value amounted to 0.
The same measure, in the same setting: for `CC/C(=C(\c1ccccc1)c1ccc(OCCN(C)C)cc1)c1ccccc1` [Tamoxifen] (top concentration 10000 nM) the value was 0.32; for `NC(=S)N/N=C/c1ncccc1N` [Triapine] (top concentration 10000 nM), 5.18.
As to `C=CCN(/C=C1/C(=O)O[C@H](COC)[C@@]2(C)C1=C(O)C(=O)C1=C2[C@H](OC(C)=O)C[C@]2(C)C(=O)CC[C@@H]12)CC=C` [Sonolisib] (top concentration 10000 nM), the “selective drug sensitivity score” value is -0.76.
As for `C[C@H]1CNCCCN1S(=O)(=O)c1cccc2cncc(F)c12` [Ripasudil] (top concentration 10000 nM), the “selective drug sensitivity score” value turned out to be 1.18.
As for `C[C@@H](Oc1cc(-c2cnn(C3CCNCC3)c2)cnc1N)c1c(Cl)ccc(F)c1Cl` [Crizotinib] (top concentration 1000 nM), the “selective drug sensitivity score” value was -0.54.
Take `CCN(CC)CCCC(C)Nc1ccnc2cc(Cl)ccc12` (configuration not stated) [Chloroquine] (top concentration 100000 nM): the “selective drug sensitivity score” value is -3.94.
With `N#CC(c1ccnc(OCc2ccc(CN3CCOCC3)cc2)n1)c1nc2ccccc2s1` (configuration not stated) [Bentamapimod] (top concentration 10000 nM), the “selective drug sensitivity score” value came to 2.94.
As for `COc1cc(N2CCC(N3CCN(C)CC3)CC2)ccc1Nc1ncnc(Nc2ccccc2S(=O)(=O)C(C)C)n1` [ASP3026] (top concentration 10000 nM), the “selective drug sensitivity score” value was -1.44.
On the same count and under the same terms, as for `COCCOc1cnc2ccn([C@H](C)c3nnc4c(F)cc(-c5cnn(C)c5)cn34)c(=O)c2c1` [AMG-337] (top concentration 10000 nM), the figure is -0.06; as for `Cc1cnc(NC(=O)Nc2cc(Br)c(C)cc2OC[C@@H]2CNCCO2)cn1` [Rabusertib] (top concentration 1000 nM), -0.74.
Same read-out and setting: as for `CNC(=O)c1ccc(-c2cnc3ncc(Cc4ccc5ncccc5c4)n3n2)cc1F` [Capmatinib] (top concentration 1000 nM), the figure is -0.06; as for `COc1cc2/c(=N/c3ccc(Br)cc3F)nc[nH]c2cc1OCC1CCN(C)CC1` [Vandetanib] (top concentration 1000 nM), -0.22.

In a further test the test system is NALL-1. Described as above. As to conditions: 72 h.
Take `O=C1c2c(O)ccc(O)c2C(=O)c2c(NCCNCCO)ccc(NCCNCCO)c21` [Mitoxantrone] (top concentration 1000 nM): the “selective drug sensitivity score” value is -5.06.
The same measure, in the same setting: for `Nc1ncnc2c1c(COc1cccc(Cl)c1)nn2C1CCOCC1` (top concentration 10000 nM) the value was -0.64; for `CC1(C)CNc2cc(NC(=O)c3cccnc3NCc3ccncc3)ccc21` [Motesanib] (top concentration 10000 nM), -0.22; for `NC(=O)c1cccc(-c2cccc(OC(=O)NC3CCCCC3)c2)c1` [URB597] (top concentration 1000 nM), -0.46.
Still for that read-out and setting: for `CCCN(CCC)C(=O)C1=Cc2ccc(-c3ccc(C(=O)N4CCCC4)cc3)cc2N=C(N)C1` [Motolimod] (top concentration 10000 nM) the value was -4.48; for `CCCOc1ccn2c(C(C)=O)cc(-c3ccccc3S(C)(=O)=O)c2c1` [GSK2801] (top concentration 10000 nM), -0.36.
On to `Nc1cc(COc2c(Cl)cc(C[C@H](N)C(=O)O)cc2Cl)c2oc(-c3ccccc3)nc2c1` [JPH203] (top concentration 5000 nM), for which the “selective drug sensitivity score” value came to 0.
As to `CC/C(=C(\c1ccccc1)c1ccc(OCCN(C)C)cc1)c1ccccc1` [Tamoxifen] (top concentration 10000 nM), the “selective drug sensitivity score” value was 3.82.
As for `NC(=S)N/N=C/c1ncccc1N` [Triapine] (top concentration 10000 nM), the “selective drug sensitivity score” value worked out at 3.48.
`C=CCN(/C=C1/C(=O)O[C@H](COC)[C@@]2(C)C1=C(O)C(=O)C1=C2[C@H](OC(C)=O)C[C@]2(C)C(=O)CC[C@@H]12)CC=C` [Sonolisib] (top concentration 10000 nM): the “selective drug sensitivity score” value was -0.76.
Regarding `C[C@H]1CNCCCN1S(=O)(=O)c1cccc2cncc(F)c12` [Ripasudil] (top concentration 10000 nM), the “selective drug sensitivity score” value was -0.22.
On the same count and under the same terms, for `C[C@@H](Oc1cc(-c2cnn(C3CCNCC3)c2)cnc1N)c1c(Cl)ccc(F)c1Cl` [Crizotinib] (top concentration 1000 nM) the value was -0.54; for `CCN(CC)CCCC(C)Nc1ccnc2cc(Cl)ccc12` (configuration not stated) [Chloroquine] (top concentration 100000 nM), -8.84; for `N#CC(c1ccnc(OCc2ccc(CN3CCOCC3)cc2)n1)c1nc2ccccc2s1` (configuration not stated) [Bentamapimod] (top concentration 10000 nM), 1.14.
As to `COc1cc(N2CCC(N3CCN(C)CC3)CC2)ccc1Nc1ncnc(Nc2ccccc2S(=O)(=O)C(C)C)n1` [ASP3026] (top concentration 10000 nM), the “selective drug sensitivity score” value is -2.64.
Regarding `COCCOc1cnc2ccn([C@H](C)c3nnc4c(F)cc(-c5cnn(C)c5)cn34)c(=O)c2c1` [AMG-337] (top concentration 10000 nM), the “selective drug sensitivity score” value amounted to 2.14.
Take `Cc1cnc(NC(=O)Nc2cc(Br)c(C)cc2OC[C@@H]2CNCCO2)cn1` [Rabusertib] (top concentration 1000 nM): the “selective drug sensitivity score” value was -0.74.
In the case of `CNC(=O)c1ccc(-c2cnc3ncc(Cc4ccc5ncccc5c4)n3n2)cc1F` [Capmatinib] (top concentration 1000 nM), the “selective drug sensitivity score” value was -0.06.
On the same count and under the same terms, for `COc1cc2/c(=N/c3ccc(Br)cc3F)nc[nH]c2cc1OCC1CCN(C)CC1` [Vandetanib] (top concentration 1000 nM) the value was 2.28.

For a further test, the system named is CCRF-CEM. The description is as above. To be noted: 72 h.
`O=C1c2c(O)ccc(O)c2C(=O)c2c(NCCNCCO)ccc(NCCNCCO)c21` [Mitoxantrone] (top concentration 1000 nM): the “selective drug sensitivity score” value amounted to 10.8.
Same read-out and setting: as for `Nc1ncnc2c1c(COc1cccc(Cl)c1)nn2C1CCOCC1` (top concentration 10000 nM), the figure is -0.44.
As to `CC1(C)CNc2cc(NC(=O)c3cccnc3NCc3ccncc3)ccc21` [Motesanib] (top concentration 10000 nM), the “selective drug sensitivity score” value was -0.22.
With `NC(=O)c1cccc(-c2cccc(OC(=O)NC3CCCCC3)c2)c1` [URB597] (top concentration 1000 nM), the “selective drug sensitivity score” value is -0.46.
With `CCCN(CCC)C(=O)C1=Cc2ccc(-c3ccc(C(=O)N4CCCC4)cc3)cc2N=C(N)C1` [Motolimod] (top concentration 10000 nM), the “selective drug sensitivity score” value was -3.38.
On to `CCCOc1ccn2c(C(C)=O)cc(-c3ccccc3S(C)(=O)=O)c2c1` [GSK2801] (top concentration 10000 nM), for which the “selective drug sensitivity score” value is -0.26.
The same measure, in the same setting: as for `Nc1cc(COc2c(Cl)cc(C[C@H](N)C(=O)O)cc2Cl)c2oc(-c3ccccc3)nc2c1` [JPH203] (top concentration 5000 nM), the figure is 0; as for `CC/C(=C(\c1ccccc1)c1ccc(OCCN(C)C)cc1)c1ccccc1` [Tamoxifen] (top concentration 10000 nM), 0.82; as for `NC(=S)N/N=C/c1ncccc1N` [Triapine] (top concentration 10000 nM), 2.68.
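Further: ALL cell lines in 384-well plates, five doses spanning 10,000-fold, each plate scaled between vehicle and 100 µmol/L benzalkonium chloride controls, sDSS an adapted area-under-curve metric.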
